US5580854A, “Substrate-related peptidyl-aldehyde inhibitors of the proteolytic activity of the multicatalytic proteinase complex” (Mount Sinai School of Medicine of The City University of …, priority 1994, dated 1996)
Like-named read-outs stand apart in the source and are kept apart here. Each block holds one compound with its values, some of them ahead of it. Peptide text beside a SMILES is read from it. * marks the point of attachment. Cbz = O=C(OCc1ccccc1)*

Tests used:
[1] = target: T1, BrAAP component of the multicatalytic proteinase complex (MPC) (Bos taurus, UniProt Q2TBP0+Q32KL2+Q3MHN0); assay: Activity of the BrAAP component of the MPC, coupled two step reaction with aminopeptidase N; Ki by Dixon plots; format: biochemical, bovine
T1 construct: The MPC was isolated from frozen bovine pituitaries; tissue PelFreeze, Inc. (Rogers, Ark.) (supplier of the tissue; the enzyme was purified in house); host or cells: bovine pituitaries
Text: (§1) The MPC was isolated from frozen bovine pituitaries, obtained from PelFreeze, Inc. (Rogers, Ark.) essentially as described in Orlowski & Michaud, Biochemistry 28:9270-9277 (1989), incorporated herein by reference.
(§2) Cbz-Gly-Pro-Ala-Leu-Gly-pAB and Cbz-Gly-Pro-Ala-Gly-Gly-pAB, where pAB is p-aminobenzoate, were used as convenient substrates for the determination of the activity of the BrAAP and SNAAP components respectively. The BrAAP component cleaves exclusively the Leu-Gly bond in Cbz-Gly-Pro-Ala-Leu-Gly-pAB, whereas the SNAAP component cleaves the Gly-Gly bond in Cbz-Gly-Pro-Ala-Gly-Gly-pAB.
(§3) A coupled two step reaction in the presence of excess aminopeptidase N (AN) was used for the determination of the BrAAP and SNAAP activities as described previously (Orlowski et al., Biochemistry 32:1563-1572 (1993)). Aminopeptidase N was purified from hog kidneys as described by Pfleiderer, Meth. Enzymol. 19:514-521 (1970) and freed from the contaminating metalloendopeptidase (EC 3.4.24.11) as previously described (Almenoff & Orlowski, Biochemistry 22:590-599 (1983)).
(§4) Inhibition constant (K1) values for the inhibitors of the present invention towards the various proteolytic activities of the MPC were determined by the method of Dixon, Biochem. J. 55:170-171 (1953). Plots of 1/v vs [I] were made at three (3) different synthetic substrate concentrations and six (6) different inhibitor concentrations [I]. Linear regression analysis gave generally correlation coefficients better than 0.99.
(§5) Inhibition was tested with and without preincubation of the MPC with the inhibitors of the invention. No increase in inhibition was observed after preincubation of the enzyme with the inhibitor for up to 30 min, indicating absence of slow binding phenomena and a rapid equilibration between enzyme and inhibitor.
(§6) Table II provides a summary of the Ki measurements for the various peptidyl aldehydes of the invention synthesized in accordance with Examples 2 and 3.

[2] = target: T2, SNAAP component of the multicatalytic proteinase complex (MPC) (Bos taurus, UniProt Q2TBP0+Q32KL2+Q3MHN0); assay: Activity of the SNAAP component of the MPC, coupled two step reaction with aminopeptidase N; Ki by Dixon plots; format: biochemical, bovine; settings: substrate Cbz-Gly-Pro-Ala-Gly-Gly-pAB (1 to 4 mill); mean of 3 to 6 experiments ± SEM
T2 construct: The MPC was isolated from frozen bovine pituitaries; tissue PelFreeze, Inc. (Rogers, Ark.) (supplier of the tissue; the enzyme was purified in house); host or cells: bovine pituitaries
Text: as §1, §2, §3, §4, §5, §6

[3] = target: T3, ChT-L component of the multicatalytic proteinase complex (MPC) (Bos taurus, UniProt Q32KL2); assay: ChT-L activity of the MPC with Cbz-Gly-Gly-Leu-pNA; Ki by Dixon plots; format: biochemical, bovine; settings: for Ki: substrate Cbz-Gly-Gly-Leu-pNA (0.1 to 0.4 MM), mean of 3 to 6 experiments ± SEM
T3 construct: The MPC was isolated from frozen bovine pituitaries; tissue PelFreeze, Inc. (Rogers, Ark.) (supplier of the tissue; the enzyme was purified in house); host or cells: bovine pituitaries
Text: as §1
(§7) The substrates Cbz-Gly-Gly-Leu-pNA, Cbz-D-Ala-Leu-Arg-2NA and Cbz-Leu-Leu-Glu-2NA were used to determine the activities of the ChT-L, T-L and PGPH components of the MPC, respectively, as previously described by Wilk and Orlowski, J. Neurochem. 35:1172-1182 (1980) and J. Neurochem 40:842-849 (1983), where pNA is p-nitroaniline and 2NA is 2-naphthylamide.The rate of release of the chromogenic group (aromatic amine) was measured after diazotization (Goldbarg & Rutenburg, Cancer 11:283-291 (1958) Bratton & Marshall, J. Biol. Chem. 128:537-550 (1939)).
(§8) Reaction mixtures contained 0.4 to 0.8 mM substrate, Tris-HCl buffer (0.05M; pH 8.0) and enzyme (1 to 3 μg) in a final volume of 0.25 ml. Incubations were at 37° C. The reactions were stopped by addition of an equal volume of 10% trichloroacetic acid and diazotization was then carried out.
as §4, §5, §6

[4] = target: T4, PGPH component of the multicatalytic proteinase complex (MPC) (Bos taurus, UniProt Q3MHN0); assay: PGPH activity of the MPC with Cbz-Leu-Leu-Glu-2NA; IC50; format: biochemical, bovine
T4 construct: The MPC was isolated from frozen bovine pituitaries; tissue PelFreeze, Inc. (Rogers, Ark.) (supplier of the tissue; the enzyme was purified in house); host or cells: bovine pituitaries
Text: as §1, §7, §8
Due to the sigmoidal relationship between reaction rate and substrate concentration for the PGPH activity, only IC50 values (inhibitor concentration giving 50% inhibition) at a substrate concentration of 0.64 mM were determined. […] Some inhibition of the ChT-L activity was also observed, although the Ki for this component was almost 20 times higher than that for the other three activities. […] Indeed, at the concentrations used, each of the inhibitors produced some activation of the T-L activity (data not shown).

[5] = target: T5, multicatalytic proteinase complex (MPC) (Bos taurus, UniProt Q2TBP0+Q32KL2+Q3MHN0); assay: β-casein degradation by the MPC, HPLC; format: biochemical, bovine; settings: for inhibition at 50 µM: 50 μM inhibitor, MPC 5.0 μg
T5 construct: The MPC was isolated from frozen bovine pituitaries; tissue PelFreeze, Inc. (Rogers, Ark.) (supplier of the tissue; the enzyme was purified in house); host or cells: bovine pituitaries
Procedure: as §1
(§9) In vitro protein degrading activity of the MPC, and the effects of the various inhibitors of the present invention on such activity, was determined using β-casein and histone H3 as proteolytic substrates. For determining protein degrading activity in the presence and absence of inhibitors, incubation mixtures contained Tris-HCl buffer (0.05M, pH 8.0), β-casein or histone H3, 20 mM Mg^2+ where indicated, and inhibitor dissolved in dimethylsulfoxide, where indicated. In control samples, the inhibitor was replaced by an equal volume of dimethylsulfoxide alone.
(§10) In order to measure proteolysis by the MPC, and its inhibition by the inhibitors of the invention, aliquots of the reaction mixtures were removed after various incubation times and subjected to HPLC on a Deltapak column (C4; 5 μm; 300 A; 3.9×150 mm Waters). Elution of histone H3 was carried out with a linear gradient over 30 min. established between 30 and 50% acetonitrile (v/v) in water containing 0.1% trifluoroacetic acid (v/v) at a flow rate of 1 ml/min. Elution of β-casein was carried with a linear gradient established between 10 and 45% acetonitrile (v/v) in water containing 0.1% trifluoroacetic acid (v/v). The rate of protein degradation was determined by measuring the decrease of the peak height of the protein compared with controls in which the enzyme was omitted. Alternatively degradation of the proteins was determined by integrating the area under the peak of the protein at time zero and determining the decrease of the area after incubation with the enzyme.
FIG. 1 depicts the inhibition of β-casein degradation by Cbz-Gly-Pro-Ala-Leu-CHO. HPLC analyses were carried out on samples that had been incubated in the absence and presence of the inhibitor. Incubation mixtures contained β-casein (200 μg), 20 mM Mg^2+, MPC (30 μg) and various concentrations of, inhibitor, if used, in 2 μl of Me2 SO. […]

[6] = target: T5, multicatalytic proteinase complex (MPC); assay: Histone H3 degradation by the MPC, HPLC; format: biochemical, bovine; settings: 50 μM inhibitor
Procedure: as §1, §9, §10
Histone H3 used for testing the proteolytic activity of MPC was purified from a crude histone VIII S fraction (obtained from Sigma Chemical Co. St. Louis, Mo.) by HPLC. The material was applied to a Delta Pak C4-300A semipreparative column (15 μm; 7.8 mm×300 mm) equilibrated with 30% acetonitrile (v/v) in water solution, containing 0.1% trifluoroacetic acid (v/v). Elution was carried out at a flow rate of 4 ml/min with a linear, 50 min. gradient established between 30% and 50% acetonitrile (v/v) in water, each containing 0.1% trifluoroacetic acetic acid (v/v). The main protein peak was collected and the solvent was removed under reduced pressure. The protein was dissolved in water at a concentration of 1.85 mg/ml and used for experiments. The purified histone H3 was subjected to HPLC on an analytical Deltapak column (C4; 5 μm; 300 A; 3.9×150 mm; Waters) with a linear gradient established between 30 and 50% acetonitrile (v/v) in water, containing 0.1% trifluoroacetic acid (v/v). […]

[7] = target: T1, BrAAP component of the multicatalytic proteinase complex (MPC); settings: cited from earlier work
[8] = target: T4, PGPH component of the multicatalytic proteinase complex (MPC); settings: cited from earlier work; for increase of the PGPH activity: low concentrations of SDS (0.02%) or fatty acids, depending on the substrate concentration
[9] = target: T6, BRAAP component of the MPC (Bos taurus, UniProt Q2TBP0+Q32KL2+Q3MHN0); settings: data from Orlowski et al., Biochemistry 32:1563-1572 (1993), cited from earlier work; for Km: [S] 1.6-8.0
T6 construct: The MPC was isolated from frozen bovine pituitaries; tissue PelFreeze, Inc. (Rogers, Ark.) (supplier of the tissue; the enzyme was purified in house); host or cells: bovine pituitaries

[10] = substrate Cbz-Gly-Pro-Ala-Leu-Gly-pAB (1 to 4 mill), mean of 3 to 6 experiments ± SEM, read-out: Ki, BRAAP component
[11] = substrate Cbz-Leu-Leu-Glu-2NA (0.2 to 0.6 mill), inhibitor concentration giving 50% inhibition, read-out: IC50, PGPH component

Compound: O=c1oc(Cl)c(Cl)c2ccccc12 [DCI, 3,4-dichloroisocoumarin]
activation of the BrAAP component ([7]; treatment of the MPC with DCI (10 μM)): 10 fold
inactivation of the PGPH activity ([8]; DCI (10 μM)): almost complete inactivation

Compound: CCCCCCCCCCCCOS(=O)(=O)[O-].[Na+] [SDS, sodium dodecyl sulfate]
activation of the BrAAP component ([7]; treatment of the MPC with SDS, synthetic substrates): ~50 fold
increase of the PGPH activity [8]: ~10 fold

Compound: CCCCCCCCCCCC(=O)O [lauric acid]
increase of the PGPH activity [8]: ~10 fold

Compound: Cbz-Gly-Pro-Ala-Leu-Ala-pAB
Km [9]: 6.7 mM
kcat [9]: 5.2 s⁻¹
kcat /Km [9]: 780 M⁻¹ s⁻¹

Compound: Cbz-Gly-Pro-Ala-Leu-Gly-p-aminobenzoate [Cbz-Gly-Pro-Ala-Leu-Gly-pAB]
Km [9]: 5.2 mM
kcat [9]: 3.75 s⁻¹
kcat /Km [9]: 720 M⁻¹ s⁻¹

More lines, now with the values ahead:

Ki [1, 10]: 13.9 ± 1.9 µM
Ki [2]: 17.2 ± 3.4 µM
Ki [3]: 471 ± 48 µM
IC50 [4, 11]: 60 µM
β-casein substrate remaining intact ([5]; 200 μM inhibitor, 30 min incubation, β-casein 200 μg, 20 mM Mg2+, MPC 30 μg): ~90%
Compound: CC(C)C[C@@H](C=O)NC(=O)[C@H](C)NC(=O)[C@@H]1CCCN1C(=O)CNC(=O)OCc1ccccc1 [Cbz-Gly-Pro-Ala-Leu-CHO] (Cbz-GPAL-aldehyde)

Ki [1, 10]: 305 ± 77 µM
Ki [2]: 406 ± 54 µM
Ki [3]: 1850 ± 750 µM
Compound: C[C@H](NC(=O)[C@@H]1CCCN1C(=O)CNC(=O)OCc1ccccc1)C(=O)N[C@H](C=O)Cc1ccccc1 [Cbz-Gly-Pro-Ala-Phe-CHO] (Cbz-GPAF-aldehyde)

Ki ([1]; MPC exposed to DCI (10 μM), average of three determinations, read-out: Ki, BrAAP activity of the DCI-treated enzyme): 1.67 µM
Ki [1, 10]: 1.5 ± 0.17 µM
Ki [2]: 2.3 ± 0.24 µM
Ki for ChT-L activity, times higher than that for the other three activities ([3]; ChT-L vs BrAAP, SNAAP, PGPH): ~20 times
Ki [3]: 40.5 ± 8.8 µM
IC50 ([4]; substrate concentration of 0.64 mM, absence of SDS, read-out: IC50, PGPH activity): 3.1 µM
inhibition at 50 µM ([5]; β-casein 160 μg/ml, no Mg2+): 94%
inhibition at 50 µM ([5]; β-casein 1000 μg/ml, 20 mM Mg2+): 89%
inhibition at 50 µM ([6]; all histone H3 concentrations, read-out: inhibition of the rate of histone H3 degradation): ~80%
inhibition at 50 µM ([6]; histone H3 185 μg/ml, MPC 2.5 μg, read-out: Inhibition, histone H3 degradation): 77%
inhibition at 50 µM ([6]; histone H3 370 μg/ml, MPC 2.5 μg, read-out: Inhibition, histone H3 degradation): 76%
inhibition at 50 µM ([6]; histone H3 740 μg/ml, MPC 2.5 μg, read-out: Inhibition, histone H3 degradation): 86%
Compound: CC(C)C[C@@H](C=O)NC(=O)[C@H](Cc1ccccc1)NC(=O)[C@@H]1CCCN1C(=O)CNC(=O)OCc1ccccc1 [Cbz-Gly-Pro-Phe-Leu-CHO] (Cbz-GPFL-aldehyde)

Ki [1, 10]: 47.3 ± 4.9 µM
Ki [2]: 24 ± 0.84 µM
Ki [3]: 331 ± 22 µM
IC50 [4, 11]: 62 µM
Compound: CC(C)[C@@H](C=O)NC(=O)[C@H](Cc1ccccc1)NC(=O)[C@@H]1CCCN1C(=O)CNC(=O)OCc1ccccc1 [Cbz-Gly-Pro-Phe-Val-CHO] (Cbz-GPFV-aldehyde)

Ki [1, 10]: 104 ± 2.3 µM
Ki [2]: 36.7 ± 3.6 µM
Ki [3]: 16.4 ± 2.7 µM
Compound: CC(C)C[C@@H](C=O)NC(=O)[C@H](C)NC(=O)CNC(=O)[C@@H]1CCCN1C(=O)OCc1ccccc1 [Cbz-Pro-Gly-Ala-Leu-CHO] (Cbz-PGAL-aldehyde)
